Literature values as cited in PMC4207555 (Drug Design, Development and Therapy, 2014).
Where two headings read alike, the source gives them in different places. Each block holds one compound with its values, some of them ahead of it.

Key:
[1] = system: HID28; conditions: for percentage tumor volume change (treated/control mean tumor volume): Day 35
[2] = system: plasma protein; conditions: rats; ref Sanofi, data on file, 2010
[3] = in situ brain perfusion, wild-type mice; ref 47 (unpublished data)
[4] = dogs
[5] = after IV administration; ref Sanofi, data on file, 2010
[6] = system: pediatric sarcoma xenograft; conditions: five of six models
[7] = system: bone marrow; conditions: ref Sanofi, data on file, 2010
[8] = not given; remark: listed apart in the source
[9] = system: microtubules; conditions: read-out: stabilization of microtubules against cold-induced depolymerization (concentration producing 50% cell killing)
[10] = system: bacterial reverse mutation; conditions: ref Sanofi, data on file, 2010
[11] = mice, ref Sanofi, data on file; for NOEL for central neurotoxicity / NOEL for peripheral neurotoxicity: 2010
[12] = system: tubulin
[13] = rats, ref Sanofi, data on file; for HNLD as single dose: 2013
[14] = system: plasma protein; conditions: rabbits; ref Sanofi, data on file, 2010
[15] = system: P-glycoprotein
[16] = mice
[17] = not given; remark: listed apart in the source
[18] = system: Breast Calc18/TXT; conditions: P-glycoprotein-overexpressing Calc18/TXT
[19] = humans
[20] = system: plasma protein; conditions: mice; ref Sanofi, data on file, 2010
[21] = system: human intracranial glioblastoma xenograft; conditions: two models, respective HNTDs
[22] = system: Prostate DU 145; conditions: DU145 xenograft
[23] = male or female rats; ref Sanofi, data on file, 2010
[24] = ref Sanofi, data on file, 2010
[25] = system: plasma protein; conditions: dogs; ref Sanofi, data on file, 2010
[26] = system: plasma protein; conditions: humans; ref Sanofi, data on file, 2010
[27] = single-dose studies in mice, rats, and dogs; ref Sanofi, data on file, 2013
[28] = not given; remark: listed apart in the source
[29] = system: P-glycoprotein-expressing cell lines bearing acquired resistance; conditions: range across P-glycoprotein-expressing cell lines
[30] = not given; remark: listed apart in the source
[31] = dogs; ref Sanofi, data on file, 2013
[32] = ref Sanofi, data on file, 2010; remark: listed apart in the source
[33] = system: B16/TXT melanoma; conditions: B16/TXT acquired-resistance model, no P-glycoprotein overexpression
[34] = system: Breast UISO BCA-1; conditions: UISO BCA-1, dose level below HNTD (9.3 mg/kg per injection)
[35] = system: cell lines with resistance mechanisms other than P-glycoprotein overexpression
[36] = system: mCRPC that had progressed on previous docetaxel-based therapy; conditions: for median overall survival / median progression-free survival: plus prednisone/prednisolone
[37] = dogs, ref Sanofi, data on file, 2010
[38] = rats, ref Sanofi, data on file, 2010
[39] = Phase III clinical studies in a number of tumor types
[40] = 0–48 hours, mice bearing subcutaneous MA16/C

SMILES: CO[C@H]1C(=O)[C@]2(C)[C@@H](OC)C[C@H]3OC[C@@]3(OC(C)=O)[C@H]2[C@H](OC(=O)c2ccccc2)[C@]2(O)C[C@H](OC(=O)[C@H](O)[C@@H](NC(=O)OC(C)(C)C)c3ccccc3)C(C)=C1C2(C)C [Cabazitaxel]
partial remissions ([1]; HID28, 20 mg/kg): four out of ten
percentage tumor volume change (treated/control mean tumor volume) ([1]; HID28, 20 mg/kg): 1.4%
Plasma protein binding [2]: 95.5%
logP: 3.9
brain penetration versus paclitaxel or docetaxel [3]: two- to threefold greater
two O-demethylation pathways (A and B), share of the dose excreted [4]: 54%
effects in CNS, respiratory, gastrointestinal, renal, and cardiovascular systems [5]: no physiologically relevant effects
tumor growth inhibition and tumor regression versus equivalent doses of docetaxel [6]: significantly greater tumor growth inhibition and tumor regression
in vivo rat bone marrow micronucleus test [7]: increase in micronuclei
overall brain exposure relative to plasma [8, 40]: 3.7 fold
overall brain exposure relative to tumor tissue [8, 40]: 2.3 fold
time to maximum drug concentrations in tumor tissue ([8]; MA16/C-bearing mice, 40 mg/kg): ≤ 15 min
concentration within the tumor versus plasma ([8]; after 48 hours, MA16/C-bearing mice, 40 mg/kg): 40 fold
exposure in tumor compared with plasma ([8]; during the 48 hours following administration, 40 mg/kg): 1.6 times
exposure in tumor compared with plasma ([8]; entire experimental period (168 hours), 40 mg/kg): 2.9 times
volume of distribution at steady state ([8]; tumor-bearing mice, single IV administration, ref Sanofi, data on file, 2010): 8.8 L/kg
Plasma clearance ([8]; tumor-bearing mice, single IV infusion, ref Sanofi, data on file, 2010): 1.7 L/h/kg
terminal half-life ([8]; tumor-bearing mice, ref Sanofi, data on file, 2010): 26 h
IC50 [9]: 100 to 250 nM
mutations in the bacterial reverse mutation (Ames) test [10]: did not induce mutations
NOEL for central neurotoxicity ([11]; 5-day, 1 min infusion): >7 mg/kg/day
NOEL for peripheral neurotoxicity ([11]; 5-day, 1 min infusion): 3 mg/kg/day
NOEL for central neurotoxicity ([11]; five-cycle, 1 hr infusion): 10 mg/kg/day
NOEL for peripheral neurotoxicity ([11]; five-cycle, 1 hr infusion): 5 mg/kg/day
NOEL for central neurotoxicity ([11]; single-dose, 1 min infusion): 10 mg/kg/day
NOEL for peripheral neurotoxicity ([11]; single-dose, 1 min infusion): 10 mg/kg/day
NOEL for central neurotoxicity ([11]; single-dose, 1 hr infusion): 10 mg/kg/day
NOEL for central neurotoxicity ([11]; weekly, 1 min infusion): 5 mg/kg/day
NOEL for peripheral neurotoxicity ([11]; weekly, 1 min infusion): 5 mg/kg/day
HNLD as single dose [11]; 2013: 30 mg/kg
lag time to 50% aggregation (reduction in lag time for tubulin assembly) [12]: 0 to 0.1 µmol/L
NOEL for central neurotoxicity ([13]; single-dose, 1 min infusion, 2010): >10 mg/kg/day
NOEL for central neurotoxicity ([13]; ten-cycle, 1 hr infusion, 2010): >10/20
NOEL for peripheral neurotoxicity ([13]; ten-cycle, 1 hr infusion, 2010): <1 mg/kg/day
HNLD as single dose [13]: 2.5 mg/kg
Plasma protein binding [14]: 91.4%
uptake across the BBB, P-glycoprotein-deficient versus control mice [15]: threefold higher
pathway C (t-butyl-hydroxylation on the lateral chain), share of the dose [16]: 41%
two O-demethylation pathways (A and B), share of the dose excreted [16]: 45%
radioactivity excreted via the biliary route, % of the administered dose ([17]; bile-duct-cannulated male rats, within 48 hours): 65%
pathway C (t-butyl-hydroxylation on the lateral chain), share of the dose excreted ([17]; male and female rats): 49%–55
antitumor activity [18]: not active
pathway C (t-butyl-hydroxylation on the lateral chain), share of the dose [19]: 21%
two O-demethylation pathways (A and B), share of the dose excreted [19]: 40%
Plasma protein binding [20]: 99.3%
antitumor activity (increase in life span) versus docetaxel [21]: enhanced antitumor activity compared with docetaxel
complete tumor regressions (CR) [22]: 100%
long-term tumor-free survival (TFS) [22]: 83%
mating performance or fertility [23]: did not affect
in vitro chromosome aberration test [24]: increased number of polyploid cells
Plasma protein binding [25]: 97.1%
Plasma protein binding [26]: 91.9%
highest non-lethal doses, times lower with cabazitaxel than with docetaxel [27]: 3- to 4 times
population half-life, initial phase ([28]; 170 patients): 4.4 min
population half-life, intermediate phase ([28]; 170 patients): 1.6 h
population half-life, terminal phase ([28]; 170 patients): 95.1 h
mean volume of distribution at steady state (population PK estimate) ([28]; median BSA 1.84 m^2): 2,640 L/m^2
plasma clearance (population PK estimate) ([28]; median BSA 1.84 m^2): 26.4 L/h/m^2
Resistance factors [29]: 2–10
pathway D (cleavage of the parent drug), share of the dose ([30]; all species including humans): < 0.3%
excretion via the urinary route ([30]; mice, rats, and dogs): 1%–4
excretion, % of the administered dose ([30]; mice, rats, and dogs): 91%–95
radioactivity excreted in the feces, % of the administered dose ([30]; mice, rats, and dogs): 87%–91
administered dose excreted unchanged ([30]; mice, rats, dogs, and humans): less than 2.5%
HNLD as single dose [31]: 0.5 mg/kg
volume of distribution at steady state ([32]; healthy mice, single IV administration): 2.5 to 3.7 L/kg
Plasma clearance ([32]; normal mice, single IV infusion): 0.9 to 1.1 L/h/kg
terminal half-life ([32]; normal mice): 5.1 to 7.6 h
antitumor activity [33]: demonstrated antitumor activity
log cell kill [34]: 4.4
cross-resistance [35]: no cross-resistance
grade ≥3 anemia, patients [36]: 11%
grade ≥3 diarrhea [36]: 6%
grade ≥3 leukopenia, patients [36]: 68%
grade ≥3 neutropenia, patients [36]: 82%
patients who died within 30 days of the last infusion [36]: 5%
patients with dose reduction [36]: 12%
patients with treatment delay [36]: 28%
peripheral neuropathy, patients [36]: 14%
prostate-specific antigen response [36]: 39.2%
rate of objective tumor response [36]: 14.4%
median overall survival [36]: 15.1 months
median progression-free survival [36]: 2.8 months
grade 3 peripheral neuropathy, patients ([36]; three patients): 1%
hazard ratio, death ([36]; versus mitoxantrone): 0.70
hazard ratio, progression-free survival ([36]; versus mitoxantrone): 0.74
reduction in the risk of death ([36]; versus mitoxantrone): 30%
volume of distribution at steady state ([37]; single IV administration): 3.3 to 14.5 L/kg
Plasma clearance ([37]; single IV infusion): 2.5 to 5.3 L/h/kg
terminal half-life [37]: 3.0 to 4.3 h
volume of distribution at steady state ([38]; single IV administration): 22.7 L/kg
Plasma clearance ([38]; single IV infusion): 4.8 L/h/kg
terminal half-life [38]: 10 h

logP: 3.2
HNLD as single dose [13]: 10 mg/kg
administered dose of 14C excreted in the feces ([19]; over 7 days): 80%
administered dose of 14C recovered in the urine ([19]; over 7 days): approximately 5%
SMILES: CC(=O)O[C@@]12CO[C@@H]1C[C@H](O)[C@@]1(C)C(=O)[C@H](O)C3=C(C)[C@@H](OC(=O)[C@H](O)[C@@H](NC(=O)OC(C)(C)C)c4ccccc4)C[C@@](O)([C@@H](OC(=O)c4ccccc4)[C@H]21)C3(C)C [Docetaxel, reference compound]
percentage tumor volume change (treated/control mean tumor volume) ([1]; HID28, 20 mg/kg): 16.7%
IC50 [9]: 100 to 250 nM
lag time to 50% aggregation (reduction in lag time for tubulin assembly) [12]: 0 to 0.1 µmol/L
incidence of grade 3/4 sensory neuropathy [39]: 0%–7
Resistance factors [29]: 5–59

SMILES: CC(=O)O[C@H]1CC[C@@]2(C)C(=CC[C@@H]3[C@@H]2CC[C@]2(C)C(c4cccnc4)=CC[C@@H]32)C1 [abiraterone acetate, reference compound]
antitumor activity ([1]; HID28, 50 mg/kg orally daily for 21 days): No antitumor activity

SMILES: O=C1c2c(O)ccc(O)c2C(=O)c2c(NCCNCCO)ccc(NCCNCCO)c21 [mitoxantrone, reference compound]
prostate-specific antigen response [36]: 17.8%
rate of objective tumor response [36]: 4.4%
median overall survival [36]: 12.7 months
median progression-free survival [36]: 1.4 months
